Measurements taken from ChEMBL document CHEMBL5678795 (Eur J Pharmacol, 1999).

Tests used:
[1] = target: Gastrin/cholecystokinin type B receptor (Homo sapiens) (UniProt P32239); assay: Displacement of [125I]CCK-8s from human recombinant cholecystokinin B receptor at 10 uM incubated for 60 mins by radiometric based scintillation counter assay relative to control
[2] = target: T1, Endothelin-1 receptor (Rattus norvegicus, UniProt P26684); assay: Antagonist activity at ETA receptor in endothelin-1 stimulated rat MMQ cells assessed as inhibition of phosphatidylinositol hydrolysis in presence of myo-[3H] inositol by anion exchange chromatography; type: functional, cell-based
T1 sequence (P26684 whole entry): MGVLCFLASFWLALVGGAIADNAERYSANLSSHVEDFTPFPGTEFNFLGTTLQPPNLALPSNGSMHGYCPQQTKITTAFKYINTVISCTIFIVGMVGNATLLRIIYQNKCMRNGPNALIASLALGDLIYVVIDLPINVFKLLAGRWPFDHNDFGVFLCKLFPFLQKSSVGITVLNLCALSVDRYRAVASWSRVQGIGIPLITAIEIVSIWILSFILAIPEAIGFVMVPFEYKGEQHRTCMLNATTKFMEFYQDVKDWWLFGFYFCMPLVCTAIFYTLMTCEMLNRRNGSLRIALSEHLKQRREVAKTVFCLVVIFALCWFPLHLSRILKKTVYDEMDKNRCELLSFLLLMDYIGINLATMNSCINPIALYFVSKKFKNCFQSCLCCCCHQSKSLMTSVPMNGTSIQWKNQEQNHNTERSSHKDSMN

[3] = target: T2, Endothelin receptor type B (Homo sapiens, UniProt P24530); assay: Displacement of [125I]endhothelin-3 from human ETB receptor stably expressed in CHO cells Membrane at 25 degC incubated for 3 hrs by radioligand competition binding assay; type: cell membranes
T2 sequence (P24530 whole entry): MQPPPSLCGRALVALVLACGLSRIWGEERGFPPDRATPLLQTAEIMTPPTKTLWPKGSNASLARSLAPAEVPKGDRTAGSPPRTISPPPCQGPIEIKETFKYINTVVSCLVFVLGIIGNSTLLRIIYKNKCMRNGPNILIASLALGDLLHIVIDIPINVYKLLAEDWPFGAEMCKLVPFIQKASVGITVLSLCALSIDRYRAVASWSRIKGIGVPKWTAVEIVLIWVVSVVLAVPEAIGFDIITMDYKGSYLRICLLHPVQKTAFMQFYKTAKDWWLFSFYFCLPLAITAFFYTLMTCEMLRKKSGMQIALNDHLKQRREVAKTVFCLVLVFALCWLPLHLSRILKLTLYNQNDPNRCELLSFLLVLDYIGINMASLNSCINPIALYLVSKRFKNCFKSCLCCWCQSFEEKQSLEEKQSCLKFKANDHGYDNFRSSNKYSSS

[4] = target: Muscarinic acetylcholine receptor M3 (Homo sapiens) (UniProt P20309); assay: Displacement of [3H]4-DAMP from human recombinant muscarinic M3 receptor at 10 uM incubated for 60 mins by radiometric based scintillation counter assay relative to control
[5] = Oral bioavailability in Beagle dog at 5 mg/kg administered for 12 hrs by HPLC analysis; type: ADME, organism-based, Canis lupus familiaris; conditions: in vivo
[6] = target: Substance-K receptor (Homo sapiens) (UniProt P21452); assay: Displacement of [125I]NKA from human recombinant Neurokinin A receptor at 10 uM incubated for 60 mins by radiometric based scintillation counter assay relative to control
[7] = system: P2Y purinergic receptor (Rattus norvegicus); assay: Displacement of [35S]dATPalpha S from rat brain P2Y-purinergic receptor at 10 uM incubated for 60 mins by radiometric based scintillation counter assay relative to control
[8] = target: D(2) dopamine receptor (Homo sapiens) (UniProt P14416); assay: Displacement of [3H]methyl-spiperone from human recombinant dopamine D2 receptor at 10 uM incubated for 60 mins by radiometric based scintillation counter assay relative to control
Sequence of D(2) dopamine receptor (Homo sapiens) (P14416 whole entry): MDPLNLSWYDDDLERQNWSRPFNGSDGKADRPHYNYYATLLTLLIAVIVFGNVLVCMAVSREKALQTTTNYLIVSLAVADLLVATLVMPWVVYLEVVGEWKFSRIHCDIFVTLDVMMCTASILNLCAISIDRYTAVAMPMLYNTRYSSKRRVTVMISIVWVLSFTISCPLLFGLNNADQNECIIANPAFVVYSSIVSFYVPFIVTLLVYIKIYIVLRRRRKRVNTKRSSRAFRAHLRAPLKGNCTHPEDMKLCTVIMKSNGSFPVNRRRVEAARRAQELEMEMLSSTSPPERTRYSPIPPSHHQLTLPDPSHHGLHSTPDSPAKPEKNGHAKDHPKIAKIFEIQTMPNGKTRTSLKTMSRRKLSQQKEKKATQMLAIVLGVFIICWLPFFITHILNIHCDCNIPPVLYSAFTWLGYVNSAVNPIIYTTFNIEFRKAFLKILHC

Sequence of Substance-K receptor (Homo sapiens) (P21452 whole entry): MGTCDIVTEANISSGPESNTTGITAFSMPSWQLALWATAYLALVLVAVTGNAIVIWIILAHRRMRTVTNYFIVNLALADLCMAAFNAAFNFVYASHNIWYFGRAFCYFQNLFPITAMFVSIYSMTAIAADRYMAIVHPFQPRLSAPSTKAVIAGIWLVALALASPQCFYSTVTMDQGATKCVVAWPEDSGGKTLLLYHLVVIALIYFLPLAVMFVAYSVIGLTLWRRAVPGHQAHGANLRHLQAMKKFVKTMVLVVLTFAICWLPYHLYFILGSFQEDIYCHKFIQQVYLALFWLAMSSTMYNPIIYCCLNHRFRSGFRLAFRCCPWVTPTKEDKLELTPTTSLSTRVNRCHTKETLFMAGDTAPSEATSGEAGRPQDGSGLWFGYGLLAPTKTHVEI
Sequence of Gastrin/cholecystokinin type B receptor (Homo sapiens) (P32239 whole entry): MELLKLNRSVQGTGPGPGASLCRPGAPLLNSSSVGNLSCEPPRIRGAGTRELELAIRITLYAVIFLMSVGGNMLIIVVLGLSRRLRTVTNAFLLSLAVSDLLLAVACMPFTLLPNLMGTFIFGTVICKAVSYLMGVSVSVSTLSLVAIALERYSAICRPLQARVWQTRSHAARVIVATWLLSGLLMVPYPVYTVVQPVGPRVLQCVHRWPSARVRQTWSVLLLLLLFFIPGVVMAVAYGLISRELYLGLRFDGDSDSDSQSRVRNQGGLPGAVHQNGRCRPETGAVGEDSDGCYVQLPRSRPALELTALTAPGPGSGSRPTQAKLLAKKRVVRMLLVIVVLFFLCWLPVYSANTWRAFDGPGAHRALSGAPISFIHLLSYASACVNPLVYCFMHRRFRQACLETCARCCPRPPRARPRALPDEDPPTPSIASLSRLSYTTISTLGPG
Sequence of Muscarinic acetylcholine receptor M3 (Homo sapiens) (P20309 whole entry, looked up): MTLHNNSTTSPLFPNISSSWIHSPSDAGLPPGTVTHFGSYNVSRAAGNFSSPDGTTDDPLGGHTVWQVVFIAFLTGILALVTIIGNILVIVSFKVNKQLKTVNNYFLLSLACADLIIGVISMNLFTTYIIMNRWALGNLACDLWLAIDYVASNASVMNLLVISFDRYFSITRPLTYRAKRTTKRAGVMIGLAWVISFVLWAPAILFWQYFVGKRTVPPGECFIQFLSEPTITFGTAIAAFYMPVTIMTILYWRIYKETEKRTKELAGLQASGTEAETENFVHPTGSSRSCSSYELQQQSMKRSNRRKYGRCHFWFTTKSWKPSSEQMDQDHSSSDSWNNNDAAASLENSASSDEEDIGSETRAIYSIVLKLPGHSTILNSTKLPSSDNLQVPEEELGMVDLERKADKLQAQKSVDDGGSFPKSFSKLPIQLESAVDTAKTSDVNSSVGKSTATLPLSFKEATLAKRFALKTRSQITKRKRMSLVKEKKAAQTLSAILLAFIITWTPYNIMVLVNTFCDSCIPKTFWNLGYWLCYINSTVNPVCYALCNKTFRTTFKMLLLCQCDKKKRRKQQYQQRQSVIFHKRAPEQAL

**Q.** With `CCCCN(CCCC)C(=O)CN1[C@H](c2cc(OC)c3c(c2)OCO3)C[C@@H](C(=O)O)[C@@H]1CC(C)(C)CCC` as the compound, how does the inhibition [1] read?
**A.** The inhibition was under 10%.

**Q.** And the IC50 [2]?
**A.** Its IC50 is 0.59 nM.

**Q.** And the IC50 [3]?
**A.** Its IC50 is 15.4 µM.

**Q.** What about the inhibition [4] of the same compound?
**A.** The inhibition was under 10%.

**Q.** And the bioavailability [5]?
**A.** Its bioavailability is 19.9%.

**Q.** What about the inhibition [6] of the same compound?
**A.** Its inhibition is under 10%.

**Q.** What about the inhibition [7] of the same compound?
**A.** The inhibition was under 10%.

**Q.** And the inhibition [8]?
**A.** The inhibition was under 10%.
